Paper PMC11868595, “Safety, pharmacokinetics and efficacy of HA121-28 in patients with advanced solid tumors and RET fusion-positive non-small-cell lung cancer: a multicenter, open-label, single-arm phase 1/2 trial” (Signal Transduction and Targeted Therapy, 2025)

System: patients with RET fusion-positive NSCLC
Assay: Phase 2 trial: adverse events (CTCAE)
Assay type: in vivo, human
Text: The phase 2 trial was still ongoing. It was a single-arm, multicenter, open-label, nonrandomized study to assess the efficacy and safety of HA121-28 in RET-fusion-positive NSCLC.
Patients aged 18–75 years (inclusive) who had unresectable locally advanced or metastatic NSCLC through histologically or cytologically examination were enrolled. Patients were also required to have documented RET fusions centrally examined by next-generation sequencing in certified laboratories but without other oncogenic alterations. Had progression on at least one previous line of standard treatment but have no previous use of other anti-RET inhibitors. The complete lists of inclusion and exclusion criteria of phase 1 and phase 2 are provided in both protocols (in Supplement).
In phase 1 trial, during the dose-escalation part, patients first administered HA121-28 in a single ascending dose under the fasted state, then followed up for seven days. Then, patients received ascending doses of HA121-28 (q.d.) on a 21-day on and 7-day off treatment scheme for a 28-day cycle. For patients deemed beneficial from the treatment by investigators, treatment could remain until disease progression, or they discontinued from the study. In the dose-expansion part of phase 1, as well as phase 2, patients received HA121-28 (q.d.) at the selected doses on a 21-day on and 7-day off treatment scheme until disease progression, or they discontinued from the study.
Treatment-emergent adverse events (TEAEs) were documented during the entire study period. The predefined adverse event of special interest (AESI) was ≥ grade 3 prolonged QT interval. Tumor imaging was performed using contrast-enhanced computed tomography or magnetic resonance imaging at screening, Day 28 of the first cycle, then approximately every eight weeks till the end of the study for phase 1; in phase 2, imaging was scheduled at screening, and every eight weeks during the first 40 weeks, followed by every 12 weeks for the rest of the study period. RECIST 1.1 was used by the independent review committee or investigators for assessment of tumor response. After the original assessment, a repeated assessment was required around four weeks later to confirm a complete or partial response.
The primary endpoint of phase 2 was the independent review committee evaluated ORR using RECIST 1.1. The secondary endpoints included investigators assessed ORR; DCR, PFS, and DOR by the independent review committee and investigators; overall survival and TEAEs. Each TEAE was graded according to CTCAE version 5.0 and coded by MedDRA (version 24.0). The phase 2 trial is ongoing; not all endpoints are reported in this paper.

COc1cc2c(Nc3ccc(Br)cc3F)ncnc2cc1OCCCCN(C)C.Cl.Cl [HA121-28, N-(4-bromo-2-fluorophenyl)-7-(4-(dimethylamino)butoxy)-6-methoxy quinazolin-4-amine dihydrochloride]
TEAE, All: ALT increased (Phase 2 (N=48), 450 mg): 20 (41.7) count (percentage) | TEAE, All: AST increased (Phase 2 (N=48), 450 mg): 21 (43.8) count (percentage) | TEAE, All: Anemia (Phase 2 (N=48), 450 mg): 5 (10.4) count (percentage) | TEAE, All: Any (Phase 2 (N=48), 450 mg): 48 (100) count (percentage) | TEAE, All: Asthenia (Phase 2 (N=48), 450 mg): 7 (14.6) count (percentage) | TEAE, All: Blood ALP increased (Phase 2 (N=48), 450 mg): 5 (10.4) count (percentage) | TEAE, All: Blood creatinine increased (Phase 2 (N=48), 450 mg): 9 (18.8) count (percentage) | TEAE, All: COVID-19 (Phase 2 (N=48), 450 mg): 7 (14.6) count (percentage) | TEAE, All: Cough (Phase 2 (N=48), 450 mg): 6 (12.5) count (percentage) | TEAE, All: Decreased appetite (Phase 2 (N=48), 450 mg): 5 (10.4) count (percentage) | TEAE, All: Diarrhea (Phase 2 (N=48), 450 mg): 35 (72.9) count (percentage) | TEAE, All: Dizziness (Phase 2 (N=48), 450 mg): 3 (6.3) count (percentage) | TEAE, All: Electrocardiogram T wave abnormal (Phase 2 (N=48), 450 mg): 5 (10.4) count (percentage) | TEAE, All: Fecal occult blood positive (Phase 2 (N=48), 450 mg): 0 count (percentage) | TEAE, All: GGT increased (Phase 2 (N=48), 450 mg): 6 (12.5) count (percentage) | TEAE, All: Hypertension (Phase 2 (N=48), 450 mg): 11 (22.9) count (percentage) | TEAE, All: Hypertriglyceridemia (Phase 2 (N=48), 450 mg): 7 (14.6) count (percentage) | TEAE, All: Hypoalbuminemia (Phase 2 (N=48), 450 mg): 4 (8.3) count (percentage) | TEAE, All: Hypokalemia (Phase 2 (N=48), 450 mg): 11 (22.9) count (percentage) | TEAE, All: Hyponatremia (Phase 2 (N=48), 450 mg): 5 (10.4) count (percentage) | TEAE, All: Nausea (Phase 2 (N=48), 450 mg): 3 (6.3) count (percentage) | TEAE, All: Neutrophil counts decreased (Phase 2 (N=48), 450 mg): 7 (14.6) count (percentage) | TEAE, All: Platelet counts decreased (Phase 2 (N=48), 450 mg): 6 (12.5) count (percentage) | TEAE, All: Prolonged QT interval (Phase 2 (N=48), 450 mg): 21 (43.8) count (percentage) | TEAE, All: Proteinuria (Phase 2 (N=48), 450 mg): 16 (33.3) count (percentage) | TEAE, All: Rash (Phase 2 (N=48), 450 mg): 30 (62.5) count (percentage) | TEAE, All: Sinus tachycardia (Phase 2 (N=48), 450 mg): 5 (10.4) count (percentage) | TEAE, All: Urinary tract infection (Phase 2 (N=48), 450 mg): 5 (10.4) count (percentage) | TEAE, All: Vomiting (Phase 2 (N=48), 450 mg): 6 (12.5) count (percentage) | TEAE, All: Weight loss (Phase 2 (N=48), 450 mg): 5 (10.4) count (percentage) | TEAE, All: White blood cell counts decreased (Phase 2 (N=48), 450 mg): 8 (16.7) count (percentage) | TEAE, ≥ Grade 3: ALT increased (Phase 2 (N=48), 450 mg): 3 (6.3) count (percentage) | TEAE, ≥ Grade 3: AST increased (Phase 2 (N=48), 450 mg): 2 (4.2) count (percentage) | TEAE, ≥ Grade 3: Anemia (Phase 2 (N=48), 450 mg): 0 count (percentage) | TEAE, ≥ Grade 3: Any (Phase 2 (N=48), 450 mg): 35 (72.9) count (percentage) | TEAE, ≥ Grade 3: Asthenia (Phase 2 (N=48), 450 mg): 0 count (percentage) | TEAE, ≥ Grade 3: Blood ALP increased (Phase 2 (N=48), 450 mg): 0 count (percentage) | TEAE, ≥ Grade 3: Blood creatinine increased (Phase 2 (N=48), 450 mg): 0 count (percentage) | TEAE, ≥ Grade 3: COVID-19 (Phase 2 (N=48), 450 mg): 1 (2.1) count (percentage) | TEAE, ≥ Grade 3: Cough (Phase 2 (N=48), 450 mg): 0 count (percentage) | TEAE, ≥ Grade 3: Decreased appetite (Phase 2 (N=48), 450 mg): 1 (2.1) count (percentage) | TEAE, ≥ Grade 3: Diarrhea (Phase 2 (N=48), 450 mg): 6 (12.5) count (percentage) | TEAE, ≥ Grade 3: Dizziness (Phase 2 (N=48), 450 mg): 0 count (percentage) | TEAE, ≥ Grade 3: Electrocardiogram T wave abnormal (Phase 2 (N=48), 450 mg): 0 count (percentage) | TEAE, ≥ Grade 3: Fecal occult blood positive (Phase 2 (N=48), 450 mg): 0 count (percentage) | TEAE, ≥ Grade 3: GGT increased (Phase 2 (N=48), 450 mg): 0 count (percentage) | TEAE, ≥ Grade 3: Hypertension (Phase 2 (N=48), 450 mg): 9 (18.8) count (percentage) | TEAE, ≥ Grade 3: Hypertriglyceridemia (Phase 2 (N=48), 450 mg): 0 count (percentage) | TEAE, ≥ Grade 3: Hypoalbuminemia (Phase 2 (N=48), 450 mg): 0 count (percentage) | TEAE, ≥ Grade 3: Hypokalemia (Phase 2 (N=48), 450 mg): 3 (6.3) count (percentage) | TEAE, ≥ Grade 3: Hyponatremia (Phase 2 (N=48), 450 mg): 0 count (percentage) | TEAE, ≥ Grade 3: Nausea (Phase 2 (N=48), 450 mg): 0 count (percentage) | TEAE, ≥ Grade 3: Neutrophil counts decreased (Phase 2 (N=48), 450 mg): 2 (4.2) count (percentage) | TEAE, ≥ Grade 3: Platelet counts decreased (Phase 2 (N=48), 450 mg): 0 count (percentage) | TEAE, ≥ Grade 3: Prolonged QT interval (Phase 2 (N=48), 450 mg): 15 (31.3) count (percentage) | TEAE, ≥ Grade 3: Proteinuria (Phase 2 (N=48), 450 mg): 0 count (percentage) | TEAE, ≥ Grade 3: Rash (Phase 2 (N=48), 450 mg): 1 (2.1) count (percentage) | TEAE, ≥ Grade 3: Sinus tachycardia (Phase 2 (N=48), 450 mg): 0 count (percentage) | TEAE, ≥ Grade 3: Urinary tract infection (Phase 2 (N=48), 450 mg): 1 (2.1) count (percentage) | TEAE, ≥ Grade 3: Vomiting (Phase 2 (N=48), 450 mg): 0 count (percentage) | TEAE, ≥ Grade 3: Weight loss (Phase 2 (N=48), 450 mg): 0 count (percentage) | TEAE, ≥ Grade 3: White blood cell counts decreased (Phase 2 (N=48), 450 mg): 1 (2.1) count (percentage) | Serious TEAE: ALT increased (Phase 2, 450 mg (N=48)): 1 (2.1) No. (%) | Serious TEAE: AST increased (Phase 2, 450 mg (N=48)): 1 (2.1) No. (%) | Serious TEAE: Abdominal Pain (Phase 2, 450 mg (N=48)): 1 (2.1) No. (%) | Serious TEAE: Abdominal distension (Phase 2, 450 mg (N=48)): 1 (2.1) No. (%) | Serious TEAE: Acute cholecystitis (Phase 2, 450 mg (N=48)): 0 No. (%) | Serious TEAE: Acute pancreatitis (Phase 2, 450 mg (N=48)): 0 No. (%) | Serious TEAE: Anal abscess (Phase 2, 450 mg (N=48)): 0 No. (%) | Serious TEAE: Any (Phase 2, 450 mg (N=48)): 19 (39.6) No. (%) | Serious TEAE: Aortic intramural hematoma (Phase 2, 450 mg (N=48)): 0 No. (%) | Serious TEAE: Arrhythmia (Phase 2, 450 mg (N=48)): 0 No. (%) | Serious TEAE: Blood bilirubin increased (Phase 2, 450 mg (N=48)): 0 No. (%) | Serious TEAE: Blood creatinine increased (Phase 2, 450 mg (N=48)): 0 No. (%) | Serious TEAE: COVID-19 (Phase 2, 450 mg (N=48)): 1 (2.1) No. (%) | Serious TEAE: Cardiac tamponade (Phase 2, 450 mg (N=48)): 0 No. (%) | Serious TEAE: Coronary artery atherosclerosis (Phase 2, 450 mg (N=48)): 1 (2.1) No. (%) | Serious TEAE: Death (Phase 2, 450 mg (N=48)): 1 (2.1) No. (%) | Serious TEAE: Diarrhea (Phase 2, 450 mg (N=48)): 1 (2.1) No. (%) | Serious TEAE: Drug eruption (Phase 2, 450 mg (N=48)): 0 No. (%) | Serious TEAE: Dyspnea (Phase 2, 450 mg (N=48)): 1 (2.1) No. (%) | Serious TEAE: Embolism (Phase 2, 450 mg (N=48)): 1 (2.1) No. (%) | Serious TEAE: Erythema multiforme (Phase 2, 450 mg (N=48)): 1 (2.1) No. (%) | Serious TEAE: Headache (Phase 2, 450 mg (N=48)): 1 (2.1) No. (%) | Serious TEAE: Hemoptysis (Phase 2, 450 mg (N=48)): 0 No. (%) | Serious TEAE: Hydronephrosis (Phase 2, 450 mg (N=48)): 1 (2.1) No. (%) | Serious TEAE: Hypertension (Phase 2, 450 mg (N=48)): 2 (4.2) No. (%) | Serious TEAE: Hypoalbuminemia (Phase 2, 450 mg (N=48)): 0 No. (%) | Serious TEAE: Intestinal obstruction (Phase 2, 450 mg (N=48)): 0 No. (%) | Serious TEAE: Intra-abdominal fluid collection (Phase 2, 450 mg (N=48)): 1 (2.1) No. (%) | Serious TEAE: Intracranial tumor hemorrhage (Phase 2, 450 mg (N=48)): 1 (2.1) No. (%) | Serious TEAE: Liver injury (Phase 2, 450 mg (N=48)): 0 No. (%) | Serious TEAE: Lung adenocarcinoma (Phase 2, 450 mg (N=48)): 1 (2.1) No. (%) | Serious TEAE: Malignant neoplasm progression (Phase 2, 450 mg (N=48)): 1 (2.1) No. (%) | Serious TEAE: Multiple organ dysfunction syndrome (Phase 2, 450 mg (N=48)): 0 No. (%) | Serious TEAE: Nausea (Phase 2, 450 mg (N=48)): 0 No. (%) | Serious TEAE: Nephrolithiasis (Phase 2, 450 mg (N=48)): 1 (2.1) No. (%) | Serious TEAE: Platelet counts decreased (Phase 2, 450 mg (N=48)): 0 No. (%) | Serious TEAE: Pleural effusion (Phase 2, 450 mg (N=48)): 0 No. (%)
